Results from PubChem BioAssay AID1963970 (Molecular Pharmacology Branch, DTP, NCI, 2024).

Test system: 931267-113-T-J1-PDC multicell spheroid viability
Test: Anticancer human tumor 931267-113-T-J1-PDC patient-derived colon adenocarcinoma cell line growth inhibition [PI3K]
Conditions: for IC50: curve of first compound; for viability, T/C: stronger effect = lower value
Summary of the method: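 Combination activity was assessed by viability in multicellular tumor spheroids carrying HUVEC and MSC components. Agents were tested with PI3K inhibitors from a Cmax-based top dose (or 10 microM) downward in half-log increments.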

[1] = second compound 0.00316 µM, first compound 0.0316 µM
[2] = second compound 0.00316 µM, first compound 0.1 µM
[3] = second compound 0.00316 µM, first compound 0.316 µM
[4] = second compound 0.00316 µM, first compound 1 µM
[5] = second compound 0.00316 µM, first compound 3.16 µM
[6] = second compound 0.00316 µM, first compound 10 µM
[7] = second compound 0.01 µM, first compound 0.0316 µM
[8] = second compound 0.01 µM, first compound 0.1 µM
[9] = second compound 0.01 µM, first compound 0.316 µM
[10] = second compound 0.01 µM, first compound 1 µM
[11] = second compound 0.01 µM, first compound 3.16 µM
[12] = second compound 0.01 µM, first compound 10 µM
[13] = second compound 0.0316 µM, first compound 0.0316 µM
[14] = second compound 0.0316 µM, first compound 0.1 µM
[15] = second compound 0.0316 µM, first compound 0.316 µM
[16] = second compound 0.0316 µM, first compound 1 µM
[17] = second compound 0.0316 µM, first compound 3.16 µM
[18] = second compound 0.0316 µM, first compound 10 µM
[19] = second compound 0.1 µM, first compound 0.0316 µM
[20] = second compound 0.1 µM, first compound 0.1 µM
[21] = second compound 0.1 µM, first compound 0.316 µM
[22] = second compound 0.1 µM, first compound 1 µM
[23] = second compound 0.1 µM, first compound 3.16 µM
[24] = second compound 0.1 µM, first compound 10 µM
[25] = second compound 0.316 µM, first compound 0.0316 µM
[26] = second compound 0.316 µM, first compound 0.1 µM
[27] = second compound 0.316 µM, first compound 0.316 µM
[28] = second compound 0.316 µM, first compound 1 µM
[29] = second compound 0.316 µM, first compound 3.16 µM
[30] = second compound 0.316 µM, first compound 10 µM
[31] = second compound 1 µM, first compound 0.0316 µM
[32] = second compound 1 µM, first compound 0.1 µM
[33] = second compound 1 µM, first compound 0.316 µM
[34] = second compound 1 µM, first compound 1 µM
[35] = second compound 1 µM, first compound 3.16 µM
[36] = second compound 1 µM, first compound 10 µM
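Further: viability read 7 days after compound addition.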

Work on `C#Cc1c(F)ccc2cc(O)cc(-c3ncc4c(N5CC6CCC(C5)N6)nc(OCC56CCCN5CC(F)C6)nc4c3F)c12` (centres undefined) + CC(Nc1ccc2c(c1)OCCn1cc(N3C(=O)OCC3C(F)F)nc1-2)C(N)=O yielded an IC50 (second compound 0.00316 µM) of 531 nM, an IC50 (second compound 0.01 µM) of 419 nM and an IC50 (second compound 0.0316 µM) of 364 nM. It also gave an IC50 (second compound 0.1 µM) of 219 nM, an IC50 (second compound 0.316 µM) of 179 nM and an IC50 (second compound 1 µM) of 55.8 nM. The viability, T/C [1] was 76.7%, the viability, T/C [2] was 76.6% and the viability, T/C [3] was 49%. The viability, T/C [4] was 45.8%, the viability, T/C [5] was 33.9% and the viability, T/C [6] was 26%. The viability, T/C [7] was 79%, the viability, T/C [8] was 65.4% and the viability, T/C [9] was 52.9%. For the same compound, the viability, T/C [10] was 41.8%, the viability, T/C [11] was 31.3% and the viability, T/C [12] was 24.8%. The viability, T/C [13] was 83.5%, the viability, T/C [14] was 65.3% and the viability, T/C [15] was 53.4%. It also gave a viability, T/C [16] of 36.6%, a viability, T/C [17] of 29.1% and a viability, T/C [18] of 18.8%. For the same compound, the viability, T/C [19] was 82.4%, the viability, T/C [20] was 63.3% and the viability, T/C [21] was 43.7%. The viability, T/C [22] was 29.4%, the viability, T/C [23] was 22.9% and the viability, T/C [24] was 17%. The viability, T/C [25] was 72.3%, the viability, T/C [26] was 56.4% and the viability, T/C [27] was 45%. For the same compound, the viability, T/C [28] was 25.1%, the viability, T/C [29] was 19.8% and the viability, T/C [30] was 13.3%. For the same compound, the viability, T/C [31] was 57.5%, the viability, T/C [32] was 43.9% and the viability, T/C [33] was 26%. For the same compound, the viability, T/C [34] was 23.6%, the viability, T/C [35] was 14.7% and the viability, T/C [36] was 10.8%.
In the case of `CC(Cn1ccc(-c2ccc(C#N)c(Cl)c2)n1)NC(=O)c1cc(C(C)O)[nH]n1` (centres undefined) + CC(Nc1ccc2c(c1)OCCn1cc(N3C(=O)OCC3C(F)F)nc1-2)C(N)=O, the IC50 (second compound 0.00316 µM) is reported as > 10000 nM, the IC50 (second compound 0.01 µM) is reported as > 10000 nM and the IC50 (second compound 0.0316 µM) is reported as > 10000 nM. For the same compound, the IC50 (second compound 0.1 µM) was > 10000 nM, the IC50 (second compound 0.316 µM) was > 10000 nM and the IC50 (second compound 1 µM) was > 10000 nM. The viability, T/C [1] was 88.4%, the viability, T/C [2] was 101% and the viability, T/C [3] was 98.5%. For the same compound, the viability, T/C [4] was 110%, the viability, T/C [5] was 111% and the viability, T/C [6] was 101%. For the same compound, the viability, T/C [7] was 102%, the viability, T/C [8] was 103% and the viability, T/C [9] was 106%. For the same compound, the viability, T/C [10] was 115%, the viability, T/C [11] was 113% and the viability, T/C [12] was 110%. It also gave a viability, T/C [13] of 107%, a viability, T/C [14] of 106% and a viability, T/C [15] of 101%. For the same compound, the viability, T/C [16] was 89.8%, the viability, T/C [17] was 112% and the viability, T/C [18] was 91.5%. For the same compound, the viability, T/C [19] was 98.5%, the viability, T/C [20] was 98.8% and the viability, T/C [21] was 101%. For the same compound, the viability, T/C [22] was 94.8%, the viability, T/C [23] was 103% and the viability, T/C [24] was 79.8%. The viability, T/C [25] was 92.4%, the viability, T/C [26] was 90.5% and the viability, T/C [27] was 86.8%. It also gave a viability, T/C [28] of 80.2%, a viability, T/C [29] of 90.4% and a viability, T/C [30] of 72.8%. The viability, T/C [31] was 76.4%, the viability, T/C [32] was 76.8% and the viability, T/C [33] was 74.2%. It also gave a viability, T/C [34] of 74.8%, a viability, T/C [35] of 76.1% and a viability, T/C [36] of 59.2%.
